The text below walks through data of patent US12678418B2, “Compositions and methods for the treatment of threatened respiratory failure caused by coronavirus infection and disease” (ENCYT TECHNOLOGIES, INC., priority 2020, dated 2026).

pIC50: −log10 of the molar value. Entries after “also recorded” stand apart in the source; their conditions may differ. Where two headings read alike, the source gives them in different places. Ends that are not written are not given here.

Data set [1] concerns Neu1 sialidase. The data set can be described thus: Sialidase activity in live RAW-blue macrophage cells, 4-MUNANA substrate (Example 1). The data set is classed as cell-based, mouse. Conditions: for inhibition of sialidase activity associated with S-protein: FIG. 2B; for inhibition of sialidase activity associated with S-protein / inhibition of sialidase activity associated with S-protein (UK variant): inhibitor 200 μg/mL, 0.318 mM 4-MUNANA; for inhibition of sialidase activity associated with S-protein (UK variant): FIG. 2C.

For data set [2], the target named is T1, Neu1 sialidase (Mus musculus, UniProt O35657).
T1 construct: […]; endogenous in cells; host or cells: BMC-2 macrophage cells
Format: cell-based. The conditions noted are these: for inhibition of lipopolysaccharide (LPS) induced sialidase activity: live BMC-2 macrophage cells, 1-2 mM, compared to LPS positive control; for inhibition of sialidase (Neu1) activity associated with TLR ligand treated live macrophage cells: cell surface of macrophage and dendritic cells. The text has this:
Central to this process is that Neu1 and not Neu2,-3 and -4 forms a complex with TLR-2,-3 and -4 on the cell surface of naïve macrophage cells. […] Endotoxin LPS binding to TLR4 induces Neu1 with subsequent activation of NFκB and the production of nitric oxide and proinflammatory IL-6 and TNFα cytokines in primary and macrophage cell lines.

Data set [3] deals with T1, Neu1 sialidase. The conditions noted are these: cited from earlier work; for inhibition of the LPS-induced sialidase activity: live BMC-2 macrophage cells.
In the next data set the test system is Neu1. The conditions noted are these: live macrophage cell lines and primary bone marrow macrophage cells from wild-type mice, not from Neu1-deficient mice; cited from earlier work.
A further data set addresses MMP3 (Homo sapiens, UniProt P08254). The conditions noted are these: cited from earlier work.
In data set [4] the test system is SEAP gene inducible by NF-kB and AP-1 in RAW-Blue cells. The data set can be described thus: SEAP reporter assay in RAW-Blue cells (Example 2). The conditions noted are these: for expression of SEAP (reflective of NF-kB expression): FIG. 3A-3D, various concentrations. Format: cell-based, mouse. The protocol:
RAW-Blue™ cells (mouse macrophage reporter cell line, Invivogen, San Diego CA) derived from RAW 264.7 macrophages were grown in a culture medium under the selection of Zeocin™. The cells stably express a secreted embryonic alkaline phosphatase (SEAP) gene inducible by NF-kB and AP-1 transcription factors. Upon stimulation, RAW-Blue™ cells activate NF-kB and AP-1 leading to the secretion of SEAP, which is detectable and measurable using QUANTI-Blue™, a SEAP detection medium (Invivogen). Supernatants (20 uL) after 24 hr reaction from treated RawBlue cells is added to QuantiBlue reagent (180 uL), and the readout of color reaction was done after 6 hrs. QUANTI-Blue™ is a colorimetric enzyme assay developed to determine the activity of any alkaline phosphatase present in a biological sample (supernatants) and was prepared according to manufacturer's instructions. RAW-Blue™ cells are resistant to Zeocin™ and G418.
A cell suspension of 550,000 RAW-blue cells/mL in fresh growth medium was prepared, and 180 μL of cell suspension (~100,000 cells) was added to each well of a Falcon flat-bottom 96-well plate (Becton Dickinson). After different incubation times, indicated dosages of LPS, bradykinin, angiotensin 1-7, neuropeptide FF, and S-protein alone or together with indicated dose-dependent OP were added to each well. The plates were incubated at 37° C. in a 5% CO2 incubator for 18-24 h. 180 μL of QUANTI-Blue™ solution was added to each well of a flat-bottom 96-well plate, followed by 20 μL of supernatant from stimulated RAW-blue cells. The plate was incubated for 30 min to 3 h at 37° C. and the SEAP levels were determined using a spectrophotometer at 620-655 nm. Each experiment was performed in triplicate.
(In general: Reporter assays use an easily measured gene product as a stand-in for the process of interest.)

In data set [5] the target is LPS induced sialidase activity in live BMA macrophage cells (Mus musculus, UniProt O35657). The conditions noted are these: clopidogrel bisulfate 280 μM and 500 μM for 2 min, 5 μg/ml LPS, 400 μM OP.
Another data set concerns the target carboxylesterase (Homo sapiens, UniProt P23141). Conditions: previously determined; cited from earlier work.
A further data set has as its target T2, neuraminidase 1 (Homo sapiens, UniProt Q99519).
T2 construct: endogenous in cells; host or cells: PANC-1
Put plainly: Neu-1 activity in live PANC-1 cells stimulated with EGF. Format: cell-based. The conditions noted are these: FIG. 5; aspirin 1.6 mM-6.4 mM, 30 ng/mL EGF, 0.318 mM 4-MUNANA. The protocol: Live PANC-1 cells were pre-treated with increasing concentrations of aspirin (1.6 mM-6.4 mM), followed by stimulation with 30 ng/mL of EGF to initiate Neu-1 activity. 0.318 mM 4-MUNANA substrate was added to quantify Neu-1 activity.

The target of data set [6] is mammalian neuraminidase 1 (Homo sapiens, UniProt Q99519). Put plainly: Aspirin with OP on mammalian neuraminidase 1.
The target in a further data set is T3, human Neu3 sialidase (Homo sapiens, UniProt Q9UQ49).
T3 sequence (Q9UQ49 1-428): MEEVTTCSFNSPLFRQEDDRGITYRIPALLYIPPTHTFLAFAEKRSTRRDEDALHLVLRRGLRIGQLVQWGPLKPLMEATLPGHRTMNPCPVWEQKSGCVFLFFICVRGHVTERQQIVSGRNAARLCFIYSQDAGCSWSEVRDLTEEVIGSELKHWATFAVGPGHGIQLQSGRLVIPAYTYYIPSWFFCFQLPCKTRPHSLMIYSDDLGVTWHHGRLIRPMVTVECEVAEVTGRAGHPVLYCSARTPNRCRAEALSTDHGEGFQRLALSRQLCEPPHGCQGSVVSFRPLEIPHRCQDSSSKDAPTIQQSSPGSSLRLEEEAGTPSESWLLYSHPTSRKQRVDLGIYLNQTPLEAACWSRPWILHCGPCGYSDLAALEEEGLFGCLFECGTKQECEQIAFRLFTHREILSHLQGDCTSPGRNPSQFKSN
The conditions noted are these: micromolar range; cited from earlier work.

The test system of data set [7] is Neu1 sialidase. Conditions: 2 mM, lysates from mature dendritic cells; cited from earlier work.
For a further data set, the system named is Neu3 sialidase. The conditions noted are these: 2 mM, lysates from mature dendritic cells; cited from earlier work.
In data set [8] the test system is NFκB activation, nitric oxide, IL-6 and TNFα in primary or macrophage cell lines. Put plainly: LPS/TLR ligand induced NFκB activation, nitric oxide and pro-inflammatory cytokines in macrophage cells. Format: cell-based. Conditions: macrophage and dendritic cells. The text has this: Thus, there is evidence that the activation of Neu1 sialidase in complex with TLR-2,-3 and -4 receptors on the cell surface of macrophages is inhibited by the neuraminidase inhibitor OP. […] On the basis that Mas GPCR potentiates receptor biased-induced TLR transactivation via NMBR-Neu1-MMP9 crosstalk on the cell surface alveolar macrophages, then OP will inhibit the pro-inflammatory responses in the lungs and reduce the inflammatory process.

Data set [9] shares this test system. Conditions: cited from earlier work.
For data set [10] the following is noted: cited from earlier work.
The target in a further data set is T4, MMP1 (Homo sapiens, UniProt P03956).
T4 sequence (P03956 100-469): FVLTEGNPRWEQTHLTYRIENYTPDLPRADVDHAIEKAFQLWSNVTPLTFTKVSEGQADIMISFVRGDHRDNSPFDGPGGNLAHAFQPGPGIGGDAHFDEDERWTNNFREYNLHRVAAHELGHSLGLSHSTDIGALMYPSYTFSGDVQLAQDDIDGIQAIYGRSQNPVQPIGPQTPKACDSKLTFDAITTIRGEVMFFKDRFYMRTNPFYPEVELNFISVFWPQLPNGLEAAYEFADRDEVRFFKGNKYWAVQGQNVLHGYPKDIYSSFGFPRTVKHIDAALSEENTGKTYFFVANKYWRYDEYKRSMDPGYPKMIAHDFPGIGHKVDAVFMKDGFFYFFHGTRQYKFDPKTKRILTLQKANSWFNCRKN
The conditions noted are these: read-out: IC50 for MMP1; cited from earlier work.

The target in another data set is MMP9 (Homo sapiens, UniProt P14780). Conditions: cited from earlier work.
Another data set has as its target MMP7 (Homo sapiens, UniProt P09237). Conditions: read-out: IC50 for MMP7; cited from earlier work.

MMP3, sequence (P08254 100-477, species assumed): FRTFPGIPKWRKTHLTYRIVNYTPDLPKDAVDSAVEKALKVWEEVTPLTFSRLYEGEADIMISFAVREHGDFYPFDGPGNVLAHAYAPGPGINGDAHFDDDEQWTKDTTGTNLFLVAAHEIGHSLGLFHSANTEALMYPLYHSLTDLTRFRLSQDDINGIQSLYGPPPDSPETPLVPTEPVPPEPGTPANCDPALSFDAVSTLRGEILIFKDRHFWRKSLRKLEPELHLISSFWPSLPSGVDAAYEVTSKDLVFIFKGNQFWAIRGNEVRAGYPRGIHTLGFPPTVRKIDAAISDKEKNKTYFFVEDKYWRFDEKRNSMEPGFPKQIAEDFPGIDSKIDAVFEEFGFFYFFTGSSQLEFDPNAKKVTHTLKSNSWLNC
MMP7, sequence (P09237 95-267, species assumed): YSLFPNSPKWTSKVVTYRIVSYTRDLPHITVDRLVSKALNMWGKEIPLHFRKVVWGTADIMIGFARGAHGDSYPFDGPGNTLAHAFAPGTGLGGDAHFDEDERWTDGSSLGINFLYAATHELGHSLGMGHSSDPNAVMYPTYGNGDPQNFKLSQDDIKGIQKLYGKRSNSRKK
MMP9, sequence (P14780 94-707, species assumed): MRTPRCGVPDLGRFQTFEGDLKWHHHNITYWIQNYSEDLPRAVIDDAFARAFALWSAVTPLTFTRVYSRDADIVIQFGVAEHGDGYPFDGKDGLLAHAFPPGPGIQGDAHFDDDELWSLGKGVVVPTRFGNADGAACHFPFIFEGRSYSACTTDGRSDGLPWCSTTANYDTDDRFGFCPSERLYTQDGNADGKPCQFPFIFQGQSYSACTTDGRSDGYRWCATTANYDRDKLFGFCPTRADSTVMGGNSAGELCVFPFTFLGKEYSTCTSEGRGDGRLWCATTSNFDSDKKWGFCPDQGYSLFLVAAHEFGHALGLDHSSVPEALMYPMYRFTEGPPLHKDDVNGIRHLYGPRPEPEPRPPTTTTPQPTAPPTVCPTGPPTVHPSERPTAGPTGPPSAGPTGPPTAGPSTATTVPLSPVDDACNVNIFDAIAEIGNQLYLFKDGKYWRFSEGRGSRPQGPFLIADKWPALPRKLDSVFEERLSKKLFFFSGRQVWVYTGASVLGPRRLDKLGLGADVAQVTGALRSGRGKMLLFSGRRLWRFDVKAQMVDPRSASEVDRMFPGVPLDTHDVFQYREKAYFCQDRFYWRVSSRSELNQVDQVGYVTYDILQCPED
carboxylesterase, sequence (P23141 18-567): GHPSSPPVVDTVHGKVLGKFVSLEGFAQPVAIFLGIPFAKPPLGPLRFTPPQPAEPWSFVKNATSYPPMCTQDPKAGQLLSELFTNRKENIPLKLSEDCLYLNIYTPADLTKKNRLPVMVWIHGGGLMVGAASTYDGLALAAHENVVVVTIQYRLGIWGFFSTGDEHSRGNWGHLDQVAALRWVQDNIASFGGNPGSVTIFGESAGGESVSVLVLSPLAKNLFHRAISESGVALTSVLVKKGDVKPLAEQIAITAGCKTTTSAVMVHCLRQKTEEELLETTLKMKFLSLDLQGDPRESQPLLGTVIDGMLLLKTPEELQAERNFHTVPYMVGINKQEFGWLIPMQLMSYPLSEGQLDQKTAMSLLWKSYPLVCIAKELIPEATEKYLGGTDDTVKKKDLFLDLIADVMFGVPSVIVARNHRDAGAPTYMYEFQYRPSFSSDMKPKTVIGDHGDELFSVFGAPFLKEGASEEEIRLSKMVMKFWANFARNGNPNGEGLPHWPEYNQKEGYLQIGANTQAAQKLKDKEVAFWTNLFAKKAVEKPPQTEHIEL

As for `N[C@@H](CS)C(=O)N1CCn2cc(-c3ccccc3)nc2[C@@H]1CC1CCCCC1` [BIM-46174], in the data set with Neu1 sialidase [1], the “inhibition of sialidase activity triggered by recombinant S protein and LPS” value was “inhibited”; the “inhibition of sialidase activity associated with S-protein” value is recorded as “inhibited”; the “inhibition of sialidase activity associated with S-protein (UK variant)” value is given as “inhibited”.

Take `CCC(CC)[C@H](NC(C)=O)[C@@H]1C[C@@H](C(=O)O)C[C@H]1N=C(N)N` [BCX1827]: the “inhibition of lipopolysaccharide (LPS) induced sialidase activity” value (“inhibition of lipopolysaccharide” below) against Neu1 sialidase [2] was “limited effect”. Moreover, at Neu1 sialidase [3], the “inhibition of the LPS-induced sialidase activity” value is reported as “limited significant inhibition”.

Take “angiotensin-2: GPCR agonist, printed as 'angiotensin-1 and -2' (DRVYIHPF; Angiotensin-2; UniProt P01019 25-32, looked up)”: the “induction of Neu1 activity” value in the data set with Neu1 is recorded as “induce Neu1 activity”.

As to `CNC(=O)[C@H](Cc1c[nH]c2ccccc12)NC(=O)[C@@H](CC(=O)NO)CC(C)C` [Galardin], the pIC50 at MMP3 was 7.57.

On to “angiotensin 1-7 (DRVYIHP; Angiotensin 1-7; UniProt P01019 25-31, looked up)”, for which the “induction of sialidase activity” value with Neu1 sialidase [1] (FIG. 2A, agonist 20 μg/mL) is given as “induces Sialidase activity”. Also, in data set [4], the “expression of SEAP (reflective of NF-kB expression)” value is “triggered increased expression of SEAP”.

As to `COC(=O)[C@H](c1ccccc1Cl)N1CCc2sccc2C1` [clopidogrel], the “effect on OP's capacity to inhibit LPS induced sialidase activity” value in [5] was “no effect”. Further, on carboxylesterase, the “inhibition of the hydrolysis of OP by carboxylesterase” value is on record as ≤ 90%.

Turning to `CC(=O)Oc1ccccc1C(=O)O` [aspirin], the “reduction in Neu-1 activity” value at neuraminidase 1 was “substantial reduction”. The “inhibition of mammalian neuraminidase 1 by aspirin together with OP” value in data set [6] is “potentiates the ability of OP to inhibit mammalian neuraminidase 1”.

As for lysophosphatidic acid, the “induction of Neu1 activity” value with Neu1 is listed as “induce Neu1 activity”.

On to “neuropeptide FF (FLFQPQRF; ends and bridges not checked; UniProt O15130 69-76, looked up) [MAS agonist]”, for which the “expression of SEAP (reflective of NF-kB expression)” value in data set [4] is given as “triggered increased expression of SEAP”.

With `CC(=O)N[C@H]1[C@H]([C@H](O)[C@H](O)CO)OC(C(=O)O)=C[C@@H]1N=C(N)N` [zanamivir, 4-guanidino-Neu5Ac2en], at Neu1 sialidase [2], the “inhibition of lipopolysaccharide” value is reported as “limited effect”. At Neu1 sialidase [3], the “inhibition of the LPS-induced sialidase activity” value is “limited significant inhibition”. Moreover, the “inhibition of human Neu3 sialidase” value on human Neu3 sialidase was “significantly inhibited”. Also, the “inhibition of Neu1 sialidase activity” value with Neu1 sialidase [7] is “completely inhibited”. In addition, the “inhibition of Neu3 sialidase activity” value in the data set with Neu3 sialidase is on record as “completely inhibited”.

In the case of `CCOC(=O)C1=C[C@@H](OC(CC)CC)[C@H](NC(C)=O)[C@@H](N)C1.O=P(O)(O)O` [OP, (3R,4R,5S)-4-acetylamino-5-amino-3-(1-ethylpropoxy)1-cyclohexene-1-carboxylic acid, ethyl ester, phosphate (1:1)], at Neu1 sialidase [2], the “inhibition of sialidase (Neu1) activity associated with TLR ligand treated live macrophage cells” value is on record as “most potent; also recorded: potent inhibitor”. At Neu1 sialidase [2] (listed as oseltamivir phosphate), the “inhibition of sialidase (Neu1) activity associated with TLR ligand treated live macrophage cells” value is “specifically inhibits”. The “block of TLR ligand induced NFkB activation, nitric oxide (NO) production and pro-inflammatory cytokines” value in [8] was “blocks”. For the same compound, in the data set on Neu1 sialidase [1], the “inhibition of sialidase activity triggered by recombinant S protein and LPS” value is “blocked”; the “inhibition of sialidase activity associated with S-protein” value was “inhibited”; the “inhibition of sialidase activity associated with S-protein (UK variant)” value is given as “inhibited”. Also, the “inhibition of S-protein triggered activity by SEAP reporter assay” value in [4] (FIG. 4C, S-protein 10 ug/mL, OP at indicated concentrations) was “significantly decreased; also recorded: inhibited sialidase activity in a dose dependent manner”. At Neu1 sialidase [3] (BMC-2 cells pretreated with anti-carboxylesterase agent clopidogrel), the “OP blockage of LPS-induced Neu1 sialidase activity after clopidogrel pretreatment” value is reported as “not affected”. For the same compound, the “inhibition of the LPS-induced sialidase activity” value at Neu1 sialidase [3] is listed as “completely blocks”. Further, the “inhibition of endotoxin LPS induced NFκB activation and production of nitric oxide and pro-inflammatory IL-6 and TNFα cytokines” value in data set [9] is “significantly inhibited”. Also, the solubility in water result in data set [10] was “soluble in water”.

On to thrombin, for which, in the data set with Neu1, the “induction of Neu1 activity” value is recorded as “not”.

With `CC(=O)N[C@H]1[C@H]([C@H](O)[C@H](O)CO)OC(C(=O)O)=C[C@@H]1O` [DANA, 2-deoxy-2,3-dehydro-N-acetylneuraminic acid], the “inhibition of lipopolysaccharide” value at Neu1 sialidase [2] was “limited effect”. The “inhibition of the LPS-induced sialidase activity” value on Neu1 sialidase [3] was “limited significant inhibition”.

In the case of `CC(C)CCC[C@@H](C)[C@H]1CC[C@H]2[C@@H]3CC=C4C[C@@H](O)CC[C@]4(C)[C@H]3CC[C@]12C` [cholesterol], the “induction of Neu1 activity” value in the data set on Neu1 was “induce Neu1 activity”.

Turning to `C1CNCCN1` [PIPZ], the pIC50 is 7.62 on MMP1, 7.74 at MMP3, 8.57 on MMP9 and 7.52 on MMP7.

For “angiotensin-1 (DRVYIHPFHL; Angiotensin-1; UniProt P01019 25-34, looked up) [GPCR agonist]”, the “induction of Neu1 activity” value with Neu1 is reported as “induce Neu1 activity”.

One may read the pIC50 as the negative decadic logarithm of the IC50, by convention in mol/L.
